In paper PMC4452251, “Characterization of a Thioredoxin-1 Gene from Taenia solium and Its Encoding Product” (BioMed Research International, 2015):

Target: T1, rTsTrx-1 (Taenia solium thioredoxin-1) (Taenia solium, UniProt A0A0A1E9C2)
T1 construct: gene Trx; full-length coding region, 107 residues, 11,579 Da, active site CGPC; N-terminal six-histidine tag (pRSETB), no tag removal stated
T1 sequence (A0A0A1E9C2 1-107): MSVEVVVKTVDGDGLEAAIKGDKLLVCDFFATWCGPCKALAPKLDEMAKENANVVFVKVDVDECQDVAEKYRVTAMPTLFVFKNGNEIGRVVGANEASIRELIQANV
Test: DTT/insulin reduction turbidity assay at […] nm
Format: biochemical
Conditions: 20 ug enzyme (1.5 uM) preincubated with MG 30 min at 37 C; insulin 160 uM, 1 mM DTT, 2 mM EDTA, potassium phosphate pH 6.5

CC(=O)C=O [MG, methylglyoxal]
% decrease of activity at 3 mM: 25%
